Source: patent US9546157B2, “Asymmetric piperidinyl-substituted ureas as medicines” (Helsinn Healthcare SA, priority 2014, dated 2017)

Experiments:
[1] = molecular target: T1, GHSR1a (Homo sapiens, UniProt Q92847); assay: Calcium FLIPR assay, GHSR-1a antagonism (reduction of ghrelin response); assay type: cell-based; conditions: HEK293/GHSR1a cells, ghrelin 10 nM
T1 construct: expressed in transfected cells; host or cells: HEK293
Procedure: (§1) The intracellular calcium assay was carried out in a 384-well format FLIPR™ (Molecular Device) HEK293/GHSR1a cell line. Cells were seeded 24 hr prior to the experiments at an optimal density per well. Preincubation with selected calcium dye lasted for 30-60 min at room temperature or 37° C. Test compounds, dissolved in DMSO, were added at the appropriate time and incubated for 15 min followed by the addition of ghrelin with FlexStation or FLIPR. Relative fluorescence was monitored by the FLIPR™ Molecular Device. EC50 and IC50 values were estimated from dose-response data using GraphPad Prism software. To check for GHSR-1a agonism the compound was added at t=20 sec. and the calcium response was followed for 2 minutes. To check for GHSR-1a antagonism the compound and Ghrelin (10 nM) were added to the cells at t=20 sec. and the calcium response was measured for 2 minutes. The potency of the antagonist was calculated by its ability to reduce the ghrelin response. Dose-response curves were made for relevant antagonists.

[2] = molecular target: T1, GHSR1a; assay: Calcium FLIPR assay, GHSR-1a agonism; assay type: cell-based; set-up: Emax: unit not given here; conditions: HEK293/GHSR1a cells
Procedure: as §1

T1 sequence (Q92847 whole entry): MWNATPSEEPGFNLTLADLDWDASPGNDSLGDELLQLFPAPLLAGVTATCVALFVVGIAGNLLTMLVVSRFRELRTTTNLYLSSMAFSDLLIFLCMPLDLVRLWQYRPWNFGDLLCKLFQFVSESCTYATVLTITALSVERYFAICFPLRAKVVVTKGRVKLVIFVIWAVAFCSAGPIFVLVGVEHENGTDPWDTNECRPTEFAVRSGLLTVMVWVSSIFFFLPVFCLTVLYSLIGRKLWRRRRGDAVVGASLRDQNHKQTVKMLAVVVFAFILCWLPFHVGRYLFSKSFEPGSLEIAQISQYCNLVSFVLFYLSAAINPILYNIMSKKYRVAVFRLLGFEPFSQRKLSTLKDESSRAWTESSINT

SMILES	IC50 [1]	EC50 [2]	Emax [2]
CC(NC(=O)N(C)C1CCN(C)CC1)c1ccc(C#Cc2ccc(CO)s2)c(Cl)c1Cl (centres unmarked) [Compound H0775, 3-(1-(2,3-dichloro-4-((5-(hydroxymethyl)thiophen-2-yl)ethynyl)phenyl)ethyl)-1-methyl-1-(1-methylpiperidin-4-yl)urea]	74 nM	> 5000 nM	–
CC(NC(=O)N(C)C1CCN(C)CC1)c1ccc(-c2cncc(N)n2)c(Cl)c1Cl (centres unmarked) [Compound H0780, 3-(1-(4-(6-aminopyrazin-2-yl)-2,3-dichlorophenyl)ethyl)-1-methyl-1-(1-methylpiperidin-4-yl)urea]	63 nM	> 30000 nM	–
CC(NC(=O)N(C)C1CCN(C)CC1)c1ccc(-c2ccc(CF)s2)c(Cl)c1Cl (centres unmarked) [Compound H0668, 3-(1-(2,3-dichloro-4-(5-(fluoromethyl)thiophen-2-yl)phenyl)ethyl)-1-methyl-1-(1-methylpiperidin-4-yl)urea]	8 nM	10 nM	2168
COc1ccc(C(C)(C#N)NC(=O)N(C)C2CCN(C)CC2)c(Cl)c1Cl (centres unmarked) [Compound H0671, 3-(1-cyano-1-(2,3-dichloro-4-methoxyphenyl)ethyl)-1-methyl-1-(1-methylpiperidin-4-yl)urea]	34 nM	60 nM	3748
CC(NC(=O)N(C)C1CCN(C)CC1)c1ccc(-c2cncc(N3CCCC3)c2)c(Cl)c1Cl (centres unmarked) [Compound H0719, 3-(1-(2,3-dichloro-4-(5-(pyrrolidin-1-yl)pyridin-3-yl)phenyl)ethyl)-1-methyl-1-(1-methylpiperidin-4-yl)urea]	780 nM	> 30000 nM	–
C#Cc1ccc(C(CC2CC2)NC(=O)N(OCC)C2CCN(C)CC2)c(Cl)c1Cl (centres unmarked) [Compound H0744, 3-(2-cyclopropyl-1-(2,3-dichloro-4-ethynylphenyl)ethyl)-1-ethoxy-1-(1-methylpiperidin-4-yl)urea]	33 nM	45 nM	3536
COC(=O)c1ccc(CN(C(=O)NC(C)c2ccc(-c3cccnc3)c(Cl)c2Cl)C2CCN(C)CC2)cc1 (centres unmarked) [Compound H0539, methyl 4-((3-(1-(2,3-dichloro-4-(pyridin-3-yl)phenyl)ethyl)-1-(1-methylpiperidin-4-yl)ureido)methyl)benzoate]	9 nM	> 30000 nM	–
CC(NC(=O)N(C)C1CCN(C)CC1)c1ccc(C=O)c(Cl)c1Cl (centres unmarked) [Compound H0640, 3-(1-(2,3-dichloro-4-formylphenyl)ethyl)-1-methyl-1-(1-methylpiperidin-4-yl)urea]	103 nM	> 30000 nM	–
COC(=O)c1cncc(-c2ccc(C(C)NC(=O)N(C)C3CCN(C)CC3)c(Cl)c2Cl)n1 (centres unmarked) [Compound H0789, methyl 6-(2,3-dichloro-4-(1-(3-methyl-3-(1-methylpiperidin-4-yl)ureido)ethyl)phenyl)pyrazine-2-carboxylate]	284 nM	26 nM	1137
CC(NC(=O)C(C)N1CCN(C)CC1)c1ccc(-c2cnccn2)c(Cl)c1Cl (centres unmarked) [Compound H0853, N-(1-(2,3-dichloro-4-(pyrazin-2-yl)phenyl)ethyl)-2-(4-methylpiperazin-1-yl)propanamide]	1500 nM	> 30000 nM	–
CC(=O)/C=C(\Cl)c1ccc(C(C)NC(=O)N(C)C2CCN(C)CC2)c(Cl)c1Cl (centres unmarked) [Compound H0702, (Z)-3-(1-(2,3-dichloro-4-(1-chloro-3-oxobut-1-en-1-yl)phenyl)ethyl)-1-methyl-1-(1-methylpiperidin-4-yl)urea]	96 nM	1100 nM	1940
CC(NC(=O)N(C)C1CCN(C)CC1)c1ccc(C#CCN2CCN(C)CC2)c(Cl)c1Cl (centres unmarked) [Compound H0812, 3-(1-(2,3-dichloro-4-(3-(4-methylpiperazin-1-yl)prop-1-yn-1-yl)phenyl)ethyl)-1-methyl-1-(1-methylpiperidin-4-yl)urea]	1200 nM	1500 nM	871
CC(NC(=O)N(C)C1CCN(C)CC1)c1ccc(-c2cnc(C(=O)N(C)C)cn2)c(Cl)c1Cl (centres unmarked) [Compound H0771, 5-(2,3-dichloro-4-(1-(3-methyl-3-(1-methylpiperidin-4-yl)ureido)ethyl)phenyl)-N,N-dimethylpyrazine-2-carboxamide]	9 nM	9 nM	4662
CC(NC(=O)N(C)C1CCN(C)CC1)c1ccc(C#Cc2ccccc2)c(Cl)c1Cl (centres unmarked) [Compound H0609, 3-(1-(2,3-dichloro-4-(phenylethynyl)phenyl)ethyl)-1-methyl-1-(1-methylpiperidin-4-yl)urea]	517 nM	> 30000 nM	–
CON(C(=O)NC(CC1CC1)c1ccc(-c2cnccn2)c(Cl)c1Cl)C1CCN(C)CC1 (centres unmarked) [Compound H0741, 3-(2-cyclopropyl-1-(2,3-dichloro-4-(pyrazin-2-yl)phenyl)ethyl)-1-methoxy-1-(1-methylpiperidin-4-yl)urea]	15 nM	> 30000 nM	–
CC(NC(=O)N(C)C1CCN(C)CC1)c1ccc(-c2cncc(-c3ncccn3)c2)c(Cl)c1Cl (centres unmarked) [Compound H0735, 3-(1-(2,3-dichloro-4-(5-(pyrimidin-2-yl)pyridin-3-yl)phenyl)ethyl)-1-methyl-1-(1-methylpiperidin-4-yl)urea]	209 nM	> 30000 nM	–
CC(NC(=O)N(C)C1CCN(C)CC1)c1ccc(-c2ccc3[nH]ccc3c2)c(Cl)c1Cl (centres unmarked) [Compound H0515, 3-(1-(2,3-dichloro-4-(1H-indol-5-yl)phenyl)ethyl)-1-methyl-1-(1-methylpiperidin-4-yl)urea]	40 nM	885 nM	–
CC(NC(=O)N(C)C1CCN(C)CC1)c1ccc(-c2cnc(C3CC3)nc2)c(Cl)c1Cl (centres unmarked) [Compound H0854, 3-(1-(2,3-dichloro-4-(2-cyclopropylpyrimidin-5-yl)phenyl)ethyl)-1-methyl-1-(1-methylpiperidin-4-yl)urea]	65 nM	24 nM	3246
CC(NC(=O)N(C)C1CCN(C)CC1)c1ccc(-c2cnn(CCO)c2)c(Cl)c1Cl (centres unmarked) [Compound H0693, 3-(1-(2,3-dichloro-4-(1-(2-hydroxyethyl)-1H-pyrazol-4-yl)phenyl)ethyl)-1-methyl-1-(1-methylpiperidin-4-yl)urea]	197 nM	100 nM	–
CC(=O)Nc1cncc(-c2ccc(C(C)NC(=O)N(C)C3CCN(C)CC3)c(Cl)c2Cl)c1 (centres unmarked) [Compound H0712, N-(5-(2,3-dichloro-4-(1-(3-methyl-3-(1-methylpiperidin-4-yl)ureido)ethyl)phenyl)pyridin-3-yl)acetamide]	420 nM	220 nM	1962
CC(NC(=O)N(C)C1CCN(C)CC1)c1ccc(C#CCc2cccs2)c(Cl)c1Cl (centres unmarked) [Compound H0785, 3-(1-(2,3-dichloro-4-(3-(thiophen-2-yl)prop-1-yn-1-yl)phenyl)ethyl)-1-methyl-1-(1-methylpiperidin-4-yl)urea]	33 nM	90 nM	2869
CC(NC(=O)N(C)C1CCN(C)CC1)c1ccc(-c2cn[nH]c2)c2ccccc12 (centres unmarked) [Compound H0576, 3-(1-(4-(1H-pyrazol-4-yl)naphthalen-1-yl)ethyl)-1-methyl-1-(1-methylpiperidin-4-yl)urea]	180 nM	> 30000 nM	–
CC(NC(=O)N(C)C1CCN(C)CC1)c1ccc(C(=O)Nc2cccs2)c(Cl)c1Cl (centres unmarked) [Compound H0773, 2,3-dichloro-4-(1-(3-methyl-3-(1-methylpiperidin-4-yl)ureido)ethyl)-N-(thiophen-2-yl)benzamide]	608 nM	> 30000 nM	–
CC(NC(=O)N(C)C1CCN(C)CC1)c1ccc(-c2cccc3[nH]ncc23)c(Cl)c1Cl (centres unmarked) [Compound H0513, 3-(1-(2,3-dichloro-4-(1H-indazol-4-yl)phenyl)ethyl)-1-methyl-1-(1-methylpiperidin-4-yl)urea]	544 nM	> 30000 nM	–
CC(NC(=O)N(C)C1CCN(C)CC1)c1ccc(NC(=O)Nc2cccs2)c(Cl)c1Cl (centres unmarked) [Compound H0784, 3-(1-(2,3-dichloro-4-(4-(thiophen-2-yl)ureido)phenyl)ethyl)-1-methyl-1-(1-methylpiperidin-4-yl)urea]	529 nM	> 30000 nM	–
CC(NC(=O)N(C)C1CCN(C)CC1)c1ccc(C#CC2CC2)c(Cl)c1F (centres unmarked) [Compound H0855, 3-(1-(3-chloro-4-(cycloprropylethynyl)-2-fluorophenyl)ethyl)-1-methyl-1-(1-methylpiperidin-4-yl)urea]	256 nM	> 30000 nM	–
CON(C)C(=O)c1ccc(-c2ccc(C(C)NC(=O)N(C)C3CCN(C)CC3)c(Cl)c2Cl)s1 (centres unmarked) [Compound H0692, 5-(2,3-dichloro-4-(1-(3-methyl-3-(1-methylpiperidin-4-yl)ureido)ethyl)phenyl)-N-methoxy-N-methylthiophene-2-carboxamide]	550 nM	> 1000 nM	–
COc1ccc(C(C#N)NC(=O)N(C)C2CCN(C)CC2)c(Cl)c1Cl (centres unmarked) [Compound H0669, 3-(cyano(2,3-dichloro-4-methoxyphenyl)methyl)-1-methyl-1-(1-methylpiperidin-4-yl)urea]	–	5 nM	4961
CC(NC(=O)N(C)C1CCN(C)CC1)c1ccc(-c2cncnc2)c2ccccc12 (centres unmarked) [Compound H0579, 1-methyl-1-(1-methylpiperidin-4-yl)-3-(1-(4-(pyrimidin-5-yl)naphthalen-1-yl)ethyl)urea]	–	> 30000 nM	–
COC(=O)c1ccc(C#Cc2ccc(C(C)NC(=O)N(C)C3CCN(C)CC3)c(Cl)c2Cl)s1 (centres unmarked) [Compound H0779]	429 nM	–	–
